The numbers were not newly measured in patent US12622943B2, “Composition for relieving woman menopausal symptom comprising a mixed extract of hop and citrus peel and method for treating or alleviating menopausal symptom using the same” (LG HOUSEHOLD & HEALTH CARE LTD., priority 2022, dated 2026), which cites them from elsewhere.

Each structure is given as a SMILES string.

For the series, the system named is uterine weight. To be noted: administered to animals at high doses.

Take `CC(C)=CCc1c(O)cc(O)c2c1O[C@H](c1ccc(O)cc1)CC2=O` [8-Prenylnaringenin]: the uterine weight result was “increased”.
